Source: EP0520604A2, “Monoclonal antibody against pentacyclic oleanan-type triterpene and use thereof” (MINOPHAGEN PHARMACEUTICAL COMPANY, priority 1991, dated 1992)

How the values were obtained:
Test in all cases: Inhibition ELISA (cross reactivity), solidified GA-BSA conjugate as antigen
Type in all cases: binding, mouse
[1] = test system: monoclonal antibody produced by a strain GA2-20-6; settings: for 50 % inhibition concentration (IC 50): monoclonal antibody 2-20-6, 50-fold diluted, from inhibition curves; for cross reactivity: monoclonal antibody 2-20-6, values in parenthesis, relative to (GA)
Procedure: (§1) Inhibition ELISA comprises sequentially incubating the solidified GA-BSA conjugate with glycyrrhetic acid or a sample together with the antibody, bonding the enzyme-labeled anti-mouse IgG to the resulting incubation mixture, thereby measuring the enzyme activity. The antibody bonded to the antigen contained in the sample cannot be bonded to the solidified antigen, and therefore, the amount of the enzyme bonded is reduced. By measuring the enzyme activity, glycyrrhetic acid contained in the sample can be measured. The amount of glycyrrhizin can be determined by measuring glycyrrhetic acid generated by the acid hydrolysis of glycyrrhizin.
(§2) According to direct ELISA, the antibody solution is divided into each well; according to inhibition ELISA, glycyrrhetic acid or a sample solution is divided into each well together with the antibody solution. After left to stand at ambient temperature, the wells are washed before the division of an enzyme-labeled anti-mouse IgG solution, and then the wells are left to stand at ambient temperature.
(§3) After washing each well again, a solution of a dye which develops color on enzyme reaction is divided into the washed wells for reaction. After the completion of the reaction, the absorbance of each well at 405 nm is measured with an immunoreader. By comparing the results with the values obtained from known amounts of the antigen, glycyrrhetic acid can be assayed.
(§4) The cross reactivity to the following individual compounds was examined according to inhibition ELISA. • (1) 18α H-Olean-11-oxo-12ene-30-oic acid • (2) Olean-12ene-3,11-dioxo-30-oic acid • (3) Olean-12ene-3α-hydroxy-11-oxo-30-oic- acid • (4) Olean-12ene-11-oxo-3β, 30-diol • (5) Cholic acid • (6) Deoxy cholic acid • (7) Glycyrrhetlc acid (GA) • (8) Glycyrrhizin (GL) These are illustrated as compounds (1), (2), (3), (4), (5), (6), (GA) and (GL).
(§5) One hundred µℓ each of the GA-BSA solution (10 µg/mℓ) was divided in the wells of a 96-well microtiter plate and left to stand overnight at 4° C. After removing the antigen solution, 100 µℓ each of the BSA-PBS was divided and left to stand at 37° C for one hour.
(§6) The 50-fold diluted antibody and each of the compounds were individually adjusted to 10 ng/mℓ, 100 ng/mℓ and 1000 ng/mℓ. Fifty µℓ each of the adjusted solution was divided in each well. After left to stand at ambient temperature for 30 minutes, the wells were washed three times with the PBS containing 0.05 % Tween 20, and washed twice with PBS, followed by the division of the 5000-fold dilution of goat anti-mouse IgG labeled with alkaline phosphatase, and left to stand at room temperature for 30 minutes.
(§7) After each well was washed following the same procedure described above, 100 µℓ each of 1M diethanolamine buffer (pH 9.8) containing p-nitrophenyl phosphate at a concentration of 1 mg/mℓ was divided and reacted at 37° C for 30 minutes. After the completion of the reaction, 2M sodium hydroxide was added. Then, the absorbance at 405 nm of each well was measured with an immunoreader.
(§8) From the inhibition curves obtained, 50 % inhibition concentration (IC 50) of each compound was determined. The antibody generated by the strain GA2-20-1, among the three strains, had the highest specificity.

[2] = test system: monoclonal antibody produced by a strain GA2-20-1; settings: for 50 % inhibition concentration (IC 50): monoclonal antibody 2-20-1, 50-fold diluted, from inhibition curves; for cross reactivity: monoclonal antibody 2-20-1, values in parenthesis, relative to (GA)
Procedure: as §1, §2, §3, §4, §5, §6, §7, §8

[3] = test system: monoclonal antibody produced by a strain GA2-20-3; settings: for 50 % inhibition concentration (IC 50): monoclonal antibody 2-20-3, 50-fold diluted, from inhibition curves; for cross reactivity: monoclonal antibody 2-20-3, values in parenthesis, relative to (GA)
Procedure: as §1, §2, §3, §4, §5, §6, §7, §8

Molecule | 50 % inhibition concentration (IC 50) [1] [µg/mL] | 50 % inhibition concentration (IC 50) [2] [µg/mL] | 50 % inhibition concentration (IC 50) [3] [µg/mL] | cross reactivity [1] | cross reactivity [2] | cross reactivity [3]
CC1(C)C(=O)CC[C@]2(C)[C@H]3C(=O)C=C4[C@@H]5C[C@@](C)(C(=O)O)CC[C@]5(C)CC[C@@]4(C)[C@]3(C)CC[C@@H]12 [(2), Olean-12ene-3,11-dioxo-30-oic acid] | >1 | 0.8317 | 0.9571 | (<1.6) % | ( 1.9) % | ( 3.4) %
CC1(C)[C@H](O)CC[C@]2(C)[C@H]3C(=O)C=C4[C@@H]5C[C@@](C)(C(=O)O)CC[C@]5(C)CC[C@@]4(C)[C@]3(C)CC[C@@H]12 [(3), Olean-12ene-3α-hydroxy-11-oxo-30-oic-acid] | 0.7933 | 0.6954 | 0.6765 | ( 5.6) % | ( 2.3) % | ( 4.9) %
CC1(C)[C@@H](O)CC[C@]2(C)[C@H]3C(=O)C=C4[C@@H]5C[C@@](C)(CO)CC[C@]5(C)CC[C@@]4(C)[C@]3(C)CC[C@@H]12 [(4), Olean-12ene-11-oxo-3β, 30-diol] | 0.4254 | 0.4372 | 0.4767 | (10.4) % | ( 3.6) % | ( 6.9) %
C[C@H](CCC(=O)O)[C@H]1CC[C@H]2[C@@H]3[C@H](O)C[C@@H]4C[C@H](O)CC[C@]4(C)[C@H]3C[C@H](O)[C@]12C [compound (5), Cholic acid] | >1 | >1 | >1 | (<1.6) % | (<1.6) % | (<1.6) %

Now from value to molecule, other results behind:

50 % inhibition concentration (IC 50) [1] [µg/mL] | 50 % inhibition concentration (IC 50) [2] [µg/mL] | 50 % inhibition concentration (IC 50) [3] [µg/mL] | Molecule | cross reactivity [1] | cross reactivity [2] | cross reactivity [3]
0.0975 | 0.0876 | 0.0878 | 18α H-Olean-11-oxo-12ene-30-oic acid [compound (1)] | (45.5) % | (18.2) % | (37.5) %
>1 | >1 | >1 | CC1(C)[C@@H](O[C@H]2O[C@H](C(=O)O)[C@@H](O)[C@H](O)[C@H]2O[C@@H]2O[C@H](C(=O)O)[C@@H](O)[C@H](O)[C@H]2O)CC[C@]2(C)[C@H]3C(=O)C=C4[C@@H]5C[C@@](C)(C(=O)O)CC[C@]5(C)CC[C@@]4(C)[C@]3(C)CC[C@@H]12 [(GL), Glycyrrhizin] | (<1.6) % | (<1.6) % | (<1.6) %
0.0444 | 0.0159 | 0.0329 | Glycyrrhetlc acid [(GA)] | – | – | –
